# Test results taken from patent US11477982B2, “2-amino-5-oxyalkyl-pyrimidine derivatives and their use for controlling undesired plant growth” (Bayer CropScience Aktiengesellschaft, priority 2017, dated 2022).
# Experiments:
# Type in all cases: in vivo
# HORMU: Hordeum murinum = assay: Pre-emergence herbicidal effect; settings: pre-emergence; dosage 320 g/ha
# Excerpt: (§1) 1. Pre-Emergence Herbicidal Effect and Crop Plant Compatibility
# (§2) Seeds of monocotyledonous and dicotyledonous weed plants and crop plants are placed in plastic or wood fiber pots and covered with soil. The compounds of the invention, formulated in the form of wettable powders (WP) or as emulsion concentrates (EC), are then applied onto the surface of the covering soil as aqueous suspension or emulsion with addition of 0.5% additive at a water application rate of 600 l/ha (converted).
# (§3) After the treatment, the pots are placed in a greenhouse and kept under good growth conditions for the trial plants. After about 3 weeks, the effect of the preparations is scored visually in comparison with untreated controls as percentages. For example, 100% activity=the plants have died, 0% activity=like control plants.
# [1] = tested on: AMARE: Amaranthus retroflexus; assay: Pre-emergence herbicidal effect; settings: pre-emergence; dosage 320 g/ha
# Excerpt: as §1, §2, §3
# [2] = tested on: POLCO: Polygonum convolvulus; assay: Pre-emergence herbicidal effect; settings: dosage 320 g/ha
# Excerpt: as §1, §2, §3
# [3] = tested on: ALOMY: Alopecurus myosuroides; assay: Pre-emergence herbicidal effect; settings: pre-emergence; dosage 320 g/ha
# Excerpt: as §1, §2, §3
# SETVI: Setaria viridis = assay: Pre-emergence herbicidal effect; settings: pre-emergence; dosage 320 g/ha
# Excerpt: as §1, §2, §3
# AVEFA: Avena fatua = assay: Pre-emergence herbicidal effect; settings: dosage 320 g/ha
# Excerpt: as §1, §2, §3
# [4] = tested on: MATIN: Matricaria inodora; assay: Pre-emergence herbicidal effect; settings: pre-emergence; dosage 320 g/ha
# Excerpt: as §1, §2, §3
# STEME: Stellaria media [5] = assay: Pre-emergence herbicidal effect; settings: pre-emergence; dosage 320 g/ha
# Excerpt: as §1, §2, §3
# [6] = tested on: ECHCG: Echinochloa crus-galli; assay: Pre-emergence herbicidal effect; settings: pre-emergence; dosage 320 g/ha
# Excerpt: as §1, §2, §3
# VERPE: Veronica persica = assay: Pre-emergence herbicidal effect; settings: dosage 320 g/ha
# Excerpt: as §1, §2, §3
# [7] = tested on: ABUTH: Abutilon theophrasti; assay: Pre-emergence herbicidal effect; settings: dosage 320 g/ha
# Excerpt: as §1, §2, §3
# PHBPU: Ipomoea purpurea = assay: Pre-emergence herbicidal effect; settings: dosage 320 g/ha
# Excerpt: as §1, §2, §3
# VIOTR: Viola tricolor = assay: Pre-emergence herbicidal effect; settings: dosage 320 g/ha
# Excerpt: as §1, §2, §3
# LOLRI: Lolium rigidum = assay: Pre-emergence herbicidal effect; settings: dosage 320 g/ha
# Excerpt: as §1, §2, §3
# [8] = tested on: AMARE: Amaranthus retroflexus; assay: Post-emergence herbicidal effect; settings: dosage 320 g/ha
# Protocol: (§4) 2. Post-Emergence Herbicidal Effect and Crop Plant Compatibility
# (§5) Seeds of monocotyledonous and dicotyledonous weeds and crop plants are placed in sandy loam in plastic or wood-fiber pots, covered with soil and cultivated in a greenhouse under controlled growth conditions, 2 to 3 weeks after sowing, the test plants are treated at the one-leaf stage. The compounds of the invention, formulated in the form of wettable powders (WP) or as emulsion concentrates (EC), are then sprayed onto the green parts of the plants as aqueous suspension or emulsion with addition of 0.5% additive at a water application rate of 600 l/ha (converted). After the test plants had been kept in the greenhouse under optimum growth conditions for about 3 weeks, the activity of the preparations is rated visually in comparison to untreated controls. For example, 100% activity=the plants have died, 0% activity=like control plants.
# STEME: Stellaria media [9] = assay: Post-emergence herbicidal effect; settings: dosage 320 g/ha
# Protocol: as §4, §5
# [10] = tested on: ECHCG: Echinochloa crus-galli; assay: Post-emergence herbicidal effect; settings: dosage 320 g/ha
# Protocol: as §4, §5
# [11] = tested on: ABUTH: Abutilon theophrasti; assay: Post-emergence herbicidal effect; settings: dosage 320 g/ha
# Protocol: as §4, §5
Compound,Herbicidal action against HORMU (HORMU: Hordeum murinum) [%],Herbicidal action against AMARE [1] [%],Herbicidal action against POLCO [2] [%],Herbicidal action against ALOMY [3] [%],Herbicidal action against SETVI (SETVI: Setaria viridis) [%],Herbicidal action against AVEFA (AVEFA: Avena fatua) [%],Herbicidal action against MATIN [4] [%],Herbicidal action against STEME (STEME: Stellaria media [5]) [%],Herbicidal action against ECHCG [6] [%],Herbicidal action against VERPE (VERPE: Veronica persica) [%],Herbicidal action against ABUTH [7] [%],Herbicidal action against PHBPU (PHBPU: Ipomoea purpurea) [%],Herbicidal action against VIOTR (VIOTR: Viola tricolor) [%],Herbicidal action against LOLRI (LOLRI: Lolium rigidum) [%],Herbicidal action against AMARE [8] [%],Herbicidal action against STEME (STEME: Stellaria media [9]) [%],Herbicidal action against ECHCG [10] [%],Herbicidal action against ABUTH [11] [%]
Cc1ccc2c(c1)[C@H](Nc1ncc(C(C)(O)C3CC3)cn1)[C@@H](C)C2 (some centres unmarked) [Example 1.20],100,100,100,100,100,100,100,100,100,100,100,100,100,100,90,100,100,90
Cc1ccc2c(c1)[C@H](Nc1ncc(C(C)(C)O)c(C(F)F)n1)[C@@H](C)C2 [Example 1.17],100,100,100,100,100,100,100,100,100,100,100,80,100,100,80,100,80,90
Cc1ccc2c(c1)[C@H](Nc1ncc(C(C)(C)O)c(C)n1)CCO2 [Example 1.53],100,100,100,100,100,100,100,100,100,100,100,100,100,90,90,90,100,90
Cc1ccc2c(c1)[C@H](Nc1ncc(C(C)(O)C3(C)CC3)cn1)[C@@H](C)C2 (some centres unmarked) [Example 1.61],100,100,100,100,100,80,100,100,100,100,100,90,100,100,90,90,100,90
Cc1nc(NC2c3ccccc3CC2C)ncc1C(C)(C)O (mixture of isomers) [Example 1.51],90,100,100,100,100,80,100,100,100,100,100,100,100,100,–,–,–,–
